Test results published in US7396842B2, “Five-membered cyclic compounds” (Dianippon Sumitomo Pharma Co., Ltd., priority 2002, dated 2008).
Like-named read-outs stand apart in the source and are kept apart here. Each block holds one molecule with its values, some of them ahead of it.

Experiments:
[1] = system: leukocyte infiltration into the airway; assay: Leukocyte infiltration into the airway in the guinea pig models (BALF cell counts); assay type: in vivo
Description: Evaluation of the Compound in the Leukocyte Infiltration into the Airway in the Guinea Pig Models:
In the same manner to in Experiment 2, the sensitization, the antigen challenge, and the administration of pyrilamine maleate and a medicament were carried out.
The recovery of bronchoalveolar lavage fluid (BALF) was carried out at 24 hours after the antigen challenge. Namely, the animals were anesthetized by intraperitoneal administration of pentbarbital (50 mg/ml) at a dose of 0.5 ml per animal, and the animals were subjected to an abdominal operation after sufficiently anesthetized. The perineal abdominal aorta was cut and the animals were killed by venesection. The diaphragm was incised and the neck was also incised to expose the trachea. After the trachea was cut, a cannula was inserted thereto, and an ice-cooled saline solution (5 ml) was injected by using a 5 ml syringe. Then, the injection and the suction were repeated three times by using the same solution for recovery. The fluid was collected and filtered through a stainless mesh, and collected in a tube on the ice. These procedures were repeated twice, and the recovery fluid was collected into the same tube (cases wherein the fluid volume was not more than 7 ml were not employed as data).
After the recovery, the fluid volume to be recovered was measured with the eye, and the fluid was centrifuged at 1500 rpm at 4° C. for 3 minutes, and the supernant was discarded. The residue was subjected to hemolysis under hypooncotic conditions. The mixture was centrifuged at 1500 rpm at 4° C. for 3 minutes, and the supernatant was discarded. The cells thus collected were suspended in a phosphoric buffered saline solution (PBS (−))(1 ml) containing a 0.5% BSA. The total number of cells were counted in this suspension by an automated leukocyte counter. After the measurement, a slide preparation was prepared by using Cytospin, which was further stained with a Diff Quick Stainning Kit.

[2] = target: T1, SMBS on rat lung membranes (Rattus norvegicus, UniProt A0A8I6A822); assay: Receptor binding of the compound in rat lung membranes ([125I]-iodo-cyanopindolol ligand binding assay; Experiments 1 and 4); conditions: rat lung membranes, read-out: Binding Activity (30 μM)
T1 construct: from tissue; host or cells: rat lung membranes (SD male rats)
T1 sequence (A0A8I6A822 27-587): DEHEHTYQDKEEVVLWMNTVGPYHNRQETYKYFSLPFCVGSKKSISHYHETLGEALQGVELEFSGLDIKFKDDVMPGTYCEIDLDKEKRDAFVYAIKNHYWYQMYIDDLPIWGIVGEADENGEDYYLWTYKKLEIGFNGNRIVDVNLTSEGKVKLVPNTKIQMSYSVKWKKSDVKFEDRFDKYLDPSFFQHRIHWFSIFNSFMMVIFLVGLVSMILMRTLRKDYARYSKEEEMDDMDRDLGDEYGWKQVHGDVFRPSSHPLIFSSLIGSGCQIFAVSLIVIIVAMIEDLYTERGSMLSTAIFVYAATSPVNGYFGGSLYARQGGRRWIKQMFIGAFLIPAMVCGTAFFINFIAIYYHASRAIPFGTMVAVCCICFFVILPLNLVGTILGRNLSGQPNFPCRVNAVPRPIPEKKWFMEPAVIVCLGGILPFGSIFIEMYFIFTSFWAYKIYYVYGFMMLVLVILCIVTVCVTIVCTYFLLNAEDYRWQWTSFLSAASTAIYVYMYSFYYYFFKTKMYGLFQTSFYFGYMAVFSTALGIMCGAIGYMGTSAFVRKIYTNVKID
Description: Evaluation Test on Receptor Binding of the Compound in Rat Lung Membranes:
This experiment was carried out according to the method disclosed in Sugasawa et al., (Sugasawa, T. et al., J. Biol. Chem., 272, 21244-21252(1997)).
Preparation of Rat Lung Membranes
The air tube and blood vessels were removed from the lung excised from SD male rats (7-weeks old when used, purchased from Charles River Japan, Inc.), and the lung was chopped, and washed with ice-cold tris-saline buffer (10 mM Tris-HCl, 154 mM sodium chloride, pH 7.4). The lung was homogenized by PHYSCOTRON (maximum speed: 1 minute) in a buffer for homogenization (tris-saline buffer containing 1 mM ethylenediaminetetraacetate (EDTA), 1 mM 4-(2-aminoethyl)-benzenesulfonyl fluoride (AEBSF), 5 μg/ml aprotinin, 5 μg/ml leupeptin) under ice-cooling. The mixture was centrifuged at a low speed (1500×g, 20 minutes, 4° C.), and the supernatant was super-centrifuged (100000×g, 20 minutes, 4° C.). The pellets thus obtained were suspended in tris-saline buffer, and kept at −80° C. The concentration of protein was measured by a Protein Assay Kit manufactured by Bio-Rad using bovine serum albumin (BSA) as standard.
To each well of a protein-non-adsorbent round-bottom 96-well assay plate (purchased from IWAKI GLASS CO., LTD.) was added tris-saline buffer (200 μl) containing 1 nM [^125I]-iodo-cyanopindolol (purchased from Amarsham), 10 μM serotonin, 20 μM dl-propranol, 10 μM phentoramine, 1.1 mM ascorbic acid and 100 μg lung membranes, and the mixture was mixed well by pipetting, and the plate was incubated at 37° C. for 30 minutes. Test compounds were dissolved in 100% dimethylsulfoxide, and added to the plate in an amount of 2 μl (final concentration of DMSO: 1%). In order to obtain non-specific binding, L-threo-3-(3,4-dihydroxyphenyl)-N-[3-(4-fluorophenyl)propyl]-serinepyrrolidinamide was added at a final concentration of 100 μM instead of test compound. During this period, 0.3% polyethyleneimine (PEI)/tris-saline buffer (100 μl) was added to a multiscreen plate (96-well B-glassfiber, milipore Cat. No. MAFB NOB10) and the plate was incubated for more than 30 minutes. The plate was washed by vacuum filtration (by adding ice-cold tris-saline buffer (200 μl) and then vacuum filtration), and the reaction solution on the 96-well assay plate was washed by vacuum filtration onto the multiscreen plate for four times. The B-glassfiber paper filter at the bottom of the multiscreen plate was punched out, and the γ-ray amount of [^125I]-iodo-cyanopindolol being trapped onto the paper filter was measured as binding amount. The binding amount in the presence of DMSO (final concentration: 1%) was regarded as total binding, and the binding in the presence of L-threo-3-(3,4-dihydroxyphenyl) -N-[3-(4-fluorophenyl)-propyl]serinepyrrolidinamide was regarded as non-specific binding. The value which is calculated by subtracting non-specific binding from total binding is specific binding. The binding activity of the compound can be calculated by the following equation, and expressed in a ratio of inhibiting the specific binding of [^125I]-iodo-cyanopindorol to SMBS on rat lung membranes.
In the same manner to in Experiment 1, the receptor binding assay was carried out on the present compounds by using the rat lung membranes.

Hartley male guinea pigs = assay: Late asthmatic model in guinea pigs (ovalbumin sensitization and challenge, respiratory function sGaw); assay type: in vivo, guinea pig
Description: Experiment 2 Evaluation of the Compound in Late Asthmatic Model in Guinea Pigs
The evaluation test was carried out using the compound obtained in Example 1.
Hartley male guinea pigs (purchased from Japan SLC) were prefed for about 1 week after purchasing them, and exposed to a 2% (w/v) solution of ovalbumin (OA) in saline solution in a plastic box (4 animals/box) for 5 minutes and made them inhale it by using an ultrasonic nebulizer (OMRON NE-U12, conditions: maximum amount of atomization and maximum airflow) for sensitization (Day 0). The animals were subjected to the same procedures on the 7th day. On the 14th and 15th days, each one animal was made to inhale a 2% OA for 5 minutes for antigen-challenge. One hour prior to the antigen-challenge, pyrilamine maleate (antihistamic agent; dissolved in saline solution, 10 mg/2 ml/kg) was intraperitoneally administered to each animal. A test compound was suspended in a 0.5% methyl cellulose (MC), and administered intraperitoneally twice to each animal at 2 hours prior to, and 6 hours after the antigen-challenge at a dose of 100 mg/5 ml/kg. To the control group, a 0.5% MC was administered in the same manner instead of a test compound.
The measurement and analysis of the respiratory function were carried out by a modified method of the method of Hutson et al., (cf., Penny A. Hutson et al., Am Rev Respir Dis 1988 137, 548-557). Before the antigen-challenge (before the administration of the drug) and 5 minutes, and 3, 17 and 20 hours after the antigen-challenge, the respiratory function of each animal was measured, and the wave pattern was recorded using Maclab Chart v 3.4 (AD instruments), and the analysis of the respiratory function was carried out later by using thereof. The specific airway conductance (sGaw) was calculated, and the degree of the improvement of the respiratory function was evaluated by using it as an index.

[3] = BALF recovered at 24 hours after the antigen challenge, guinea pig
[4] = versus control group, BALF 24 hours after antigen challenge, 100 mg/5 ml/kg i.p. twice
[5] = Table 44, concentration tested 30 μM, Experiment 4
[6] = ratio of inhibiting the specific binding of [125I]-iodo-cyanopindolol, test concentration 30 μM

inhibition at 30 µM [2, 6]: 73%
SMILES: COc1ccc(C(=O)/N=c2\scc(-c3ccc(OC(F)(F)F)cc3)n2CCCNCC(=O)NCC(=O)O)c(OC)c1 [Example 523]

inhibition at 30 µM [2, 6]: 32%
SMILES: COc1ccc(C(=O)/N=c2\scc(-c3ccc(OC(F)(F)F)cc3)n2CCCNCC(=O)O)c(OC)c1 [Example 531]

inhibition at 30 µM [2, 6]: 87%
SMILES: COc1ccc(C(=O)/N=c2\scc(-c3ccc(OC(F)(F)F)cc3)n2CCCNC(=N)N)c(OC)c1 [Example 534]

inhibition at 30 µM [2, 6]: 108%
SMILES: COc1ccc(C(=O)/N=c2\scc(-c3ccc(OC(F)(F)F)cc3)n2CCCNC(=N)N2CCCCC2)c(OC)c1 [Example 535]

inhibition at 30 µM [2, 6]: 67%
SMILES: CCS(=O)(=O)NCCCn1c(-c2ccc(OC(F)(F)F)cc2)cs/c1=N\C(=O)c1ccc(OC)cc1OC [Example 536]

The remaining lines, values behind:

SMILES: Cl.NCCCn1c(-c2ccc(Br)cc2)csc1=Nc1ccccc1
melting point: 241 to 242 °C

SMILES: CN(C)CCCn1c(-c2ccc(Br)cc2)csc1=Nc1ccccc1 [Example 1, N-{4-(4-bromophenyl)-3-[3-(dimethylamino)propyl]thiazol-2(3H)-ylidene}aniline]
Number of eosinophils (×10^5) [1, 3]: 13.8 ± 5.1 ×10^5
Number of lymphocytes (×10^5) [1, 3]: 2.0 ± 0.6 ×10^5
Total number of cells (×10^5) [1, 3]: 62.1 ± 8.6 ×10^5
reduction of number of eosinophils in BALF [1, 4]: 79%
reduction of number of lymphocytes in BALF [1, 4]: 70%
reduction of total number of cells in BALF [1, 4]: 82%
inhibition at 30 µM ([2]; Table 37, compound concentration 30 μM, [125I]-iodo-cyanopindolol, Experiment 1): 61.3%
inhibitory rate of LAR (from rate of change of sGaw) (Hartley male guinea pigs; 20-hr value, versus control group, 100 mg/5 ml/kg i.p. twice): about 60%
Rate of change of sGaw, 5 minutes (Hartley male guinea pigs; 5 minutes after antigen challenge (IAR), 100 mg/5 ml/kg i.p. 2 h prior to and 6 h after challenge): −33.8 ± 6.8%
Rate of change of sGaw, 20 hours (Hartley male guinea pigs; 20 hours after antigen challenge (LAR), 100 mg/5 ml/kg i.p. 2 h prior to and 6 h after challenge): −14.2±15.0%
inhibition of IAR induced immediately after the antigen challenge (Hartley male guinea pigs; result in words, 100 mg/5 ml/kg i.p. twice): tendency of inhibiting the IAR

SMILES: COc1ccc(C(=O)/N=c2\scc(-c3ccc(OC(F)(F)F)cc3)n2CCCNC(C)=O)c(OC)c1 [Example 446, N-[3-[3-(Acetoamino)propyl]-4-[4-(trifluoromethoxy)phenyl]-1,3-thiazol-2(3H)-ylidene]-2,4-dimethoxybenzamide]
melting point: 131 to 132 °C
inhibition at 30 µM [2, 5]: 97%

SMILES: COc1ccc(C(=O)N=c2scc(CNS(=O)(=O)c3ccc(C)cc3)n2CCCNC(C)=O)c(OC)c1 [Example 473, N-[3-[3-(Acetylamino)propyl]-4-({[(4-methylphenyl)sulfonyl]amino}-methyl)thiazol-2(3H)-ylidene]-2,4-dimethoxybenzamide]
inhibition at 30 µM [2, 5]: 33%

SMILES: COc1ccc(C(=O)/N=c2\scc(-c3ccc(OC(F)(F)F)cc3)n2CCCNC(=O)CN(C)C)c(OC)c1 [Example 482]
inhibition at 30 µM [2, 6]: 85%

SMILES: CCNC(=O)NCCCn1c(-c2ccc(OC(F)(F)F)cc2)cs/c1=N\C(=O)c1ccc(OC)cc1OC [Example 484]
inhibition at 30 µM [2, 6]: 97%

SMILES: CCNC(=S)NCCCn1c(-c2ccc(OC(F)(F)F)cc2)cs/c1=N\C(=O)c1ccc(OC)cc1OC [Example 494]
inhibition at 30 µM [2, 6]: 65%

SMILES: CCNC(=O)NCCCn1c(-c2ccc(F)cc2)cs/c1=N\C(=O)c1ccc(Cl)cc1OC [Example 496]
inhibition at 30 µM [2, 6]: 80%

SMILES: COc1ccc(C(=O)/N=c2\scc(-c3ccc(OC(F)(F)F)cc3)n2CCCNC(=O)N(C)C)c(OC)c1 [Example 508]
inhibition at 30 µM [2, 6]: 102%

SMILES: COc1ccc(C(=O)/N=c2\scc(-c3ccc(OC(F)(F)F)cc3)n2CCCNC(=O)N2CCOCC2)c(OC)c1 [Example 509]
inhibition at 30 µM [2, 6]: 103%

SMILES: CCOC(=O)CCNCCCn1c(-c2ccc(OC(F)(F)F)cc2)cs/c1=N\C(=O)c1ccc(OC)cc1OC [Example 520]
inhibition at 30 µM [2, 6]: 99%

SMILES: COc1ccc(C(=O)/N=c2\scc(-c3ccc(OC(F)(F)F)cc3)n2CCCNCC(N)=O)c(OC)c1 [Example 521]
inhibition at 30 µM [2, 6]: 74%
